In publication doi:10.1101/2024.09.05.611349v1 (biorxiv, 2024):
Values after ≈ are worked out from the molar mass of the structure shown. Like-named read-outs stand apart in the source and are kept apart here. One block for each compound: values may come before it.

How the values were obtained:
Assay in all cases: microbe, parasite or virus in culture
Design in all cases: species or system gram-positive clinical isolates
[1] = test system: Staphylococcus aureus MRSA 17-9; details: Staphylococcus aureus, MRSA
[2] = test system: Staphylococcus aureus MRSA 17-6; details: Staphylococcus aureus, MRSA
[3] = test system: Staphylococcus aureus MRSA 16-2; details: Staphylococcus aureus, MRSA
[4] = test system: Staphylococcus aureus MRSA 15-3; details: Staphylococcus aureus, MRSA
[5] = test system: Staphylococcus epidermidis MRSE 15-2; details: Staphylococcus epidermidis, MRSE
[6] = test system: Staphylococcus aureus MSSA 16-1; details: Staphylococcus aureus, MSSA
[7] = test system: Staphylococcus aureus MRSA 17-10; details: Staphylococcus aureus, MRSA
[8] = test system: Staphylococcus aureus MSSA 15-1; details: Staphylococcus aureus, MSSA
[9] = test system: Enterococcus faecalis EFA 15-2; details: Enterococcus faecalis
[10] = test system: Staphylococcus epidermidis MRSE 15-82; details: Staphylococcus epidermidis, MRSE
[11] = test system: Staphylococcus aureus MSSA 15-8; details: Staphylococcus aureus, MSSA
[12] = test system: Staphylococcus aureus MSSA 15-7; details: Staphylococcus aureus, MSSA
[13] = test system: Staphylococcus epidermidis MRSE 15-80; details: Staphylococcus epidermidis, MRSE
[14] = test system: Staphylococcus aureus MRSA 17-1; details: Staphylococcus aureus, MRSA
[15] = test system: Staphylococcus aureus MRSA 17-7; details: Staphylococcus aureus, MRSA
[16] = test system: Staphylococcus aureus MRSA 17-3; details: Staphylococcus aureus, MRSA
[17] = test system: Staphylococcus aureus MRSA 17-8; details: Staphylococcus aureus, MRSA
[18] = test system: Staphylococcus epidermidis MRSE 15-76; details: Staphylococcus epidermidis, MRSE
[19] = test system: Staphylococcus aureus MSSA 15-5; details: Staphylococcus aureus, MSSA
[20] = test system: Staphylococcus aureus MRSA 15-1; details: Staphylococcus aureus, MRSA
[21] = test system: Staphylococcus epidermidis MRSE 15-83; details: Staphylococcus epidermidis, MRSE
[22] = test system: Staphylococcus epidermidis MRSE 15-3; details: Staphylococcus epidermidis, MRSE
[23] = test system: Enterococcus faecalis EFA 15-68; details: Enterococcus faecalis
[24] = test system: Staphylococcus aureus MRSA 17-2; details: Staphylococcus aureus, MRSA
[25] = test system: Staphylococcus aureus MRSA 17-5; details: Staphylococcus aureus, MRSA
[26] = test system: Enterococcus faecalis EFA 15-1; details: Enterococcus faecalis
[27] = test system: Enterococcus faecium EFM 15-2; details: Enterococcus faecium
[28] = test system: Enterococcus faecium EFM 15-7; details: Enterococcus faecium
[29] = read-out: MIC(μg/ml) / vancomycin

MIC [1, 29]: 0.5 µg/mL (≈ 0.345 µM)
MIC [2, 29]: 0.5 µg/mL (≈ 0.345 µM)
MIC [3, 29]: 1 µg/mL (≈ 0.69 µM)
MIC [4, 29]: 1 µg/mL (≈ 0.69 µM)
MIC [5, 29]: 2 µg/mL (≈ 1.38 µM)
MIC [6, 29]: 0.5 µg/mL (≈ 0.345 µM)
MIC [7, 29]: 1 µg/mL (≈ 0.69 µM)
MIC [8, 29]: 1 µg/mL (≈ 0.69 µM)
MIC ([9]; EFA152, read-out: MIC(μg/ml) / vancomycin): 0.5 µg/mL (≈ 0.345 µM)
MIC [10, 29]: 1 µg/mL (≈ 0.69 µM)
MIC [11, 29]: 0.5 µg/mL (≈ 0.345 µM)
MIC [12, 29]: 1 µg/mL (≈ 0.69 µM)
MIC [13, 29]: 2 µg/mL (≈ 1.38 µM)
MIC [14, 29]: 0.5 µg/mL (≈ 0.345 µM)
MIC [15, 29]: 0.25 µg/mL (≈ 0.173 µM)
MIC [16, 29]: 1 µg/mL (≈ 0.69 µM)
MIC [17, 29]: 0.5 µg/mL (≈ 0.345 µM)
MIC [18, 29]: 2 µg/mL (≈ 1.38 µM)
MIC [19, 29]: 0.5 µg/mL (≈ 0.345 µM)
MIC [20, 29]: 2 µg/mL (≈ 1.38 µM)
MIC [21, 29]: 1 µg/mL (≈ 0.69 µM)
MIC [22, 29]: 2 µg/mL (≈ 1.38 µM)
MIC ([23]; EFA1568, read-out: MIC(μg/ml) / vancomycin): 0.5 µg/mL (≈ 0.345 µM)
MIC [24, 29]: 0.5 µg/mL (≈ 0.345 µM)
MIC [25, 29]: 0.5 µg/mL (≈ 0.345 µM)
MIC ([26]; EFA151, read-out: MIC(μg/ml) / vancomycin): 0.5 µg/mL (≈ 0.345 µM)
MIC ([27]; EFM152, read-out: MIC(μg/ml) / vancomycin): 2 µg/mL (≈ 1.38 µM)
MIC ([28]; EFM157, read-out: MIC(μg/ml) / vancomycin): 0.5 µg/mL (≈ 0.345 µM)
Compound: CN[C@H](CC(C)C)C(=O)N[C@H]1C(=O)N[C@@H](CC(N)=O)C(=O)N[C@H]2C(=O)N[C@H]3C(=O)N[C@H](C(=O)N[C@H](C(=O)O)c4cc(O)cc(O)c4-c4cc3ccc4O)[C@H](O)c3ccc(c(Cl)c3)Oc3cc2cc(c3O[C@@H]2O[C@H](CO)[C@@H](O)[C@H](O)[C@H]2O[C@H]2C[C@](C)(N)[C@H](O)[C@H](C)O2)Oc2ccc(cc2Cl)[C@H]1O [vancomycin]

Compound: CCCCCOc1ccc(C(=O)NNC(=S)NC(C)=O)cc1 [1b, N-(2-(4-(n-pentoxy)benzoyl)hydrazine-1-carbonothioyl)acetamide]
MIC ([1]; read-out: MIC(μg/ml) / 1b): 2 µg/mL (≈ 6.18 µM)
MIC ([2]; read-out: MIC(μg/ml) / 1b): 2 µg/mL (≈ 6.18 µM)
MIC ([3]; read-out: MIC(μg/ml) / 1b): 2 µg/mL (≈ 6.18 µM)
MIC ([4]; read-out: MIC(μg/ml) / 1b): 4 µg/mL (≈ 12.4 µM)
MIC ([5]; read-out: MIC(μg/ml) / 1b): 4 µg/mL (≈ 12.4 µM)
MIC ([6]; read-out: MIC(μg/ml) / 1b): 1 µg/mL (≈ 3.09 µM)
MIC ([7]; read-out: MIC(μg/ml) / 1b): 2 µg/mL (≈ 6.18 µM)
MIC ([8]; read-out: MIC(μg/ml) / 1b): 1 µg/mL (≈ 3.09 µM)
MIC ([9]; EFA152, read-out: MIC(μg/ml) / 1b): 8 µg/mL (≈ 24.7 µM)
MIC ([10]; read-out: MIC(μg/ml) / 1b): 1 µg/mL (≈ 3.09 µM)
MIC ([11]; read-out: MIC(μg/ml) / 1b): 2 µg/mL (≈ 6.18 µM)
MIC ([12]; read-out: MIC(μg/ml) / 1b): 2 µg/mL (≈ 6.18 µM)
MIC ([13]; read-out: MIC(μg/ml) / 1b): 1 µg/mL (≈ 3.09 µM)
MIC ([14]; read-out: MIC(μg/ml) / 1b): 2 µg/mL (≈ 6.18 µM)
MIC ([15]; read-out: MIC(μg/ml) / 1b): 2 µg/mL (≈ 6.18 µM)
MIC ([16]; read-out: MIC(μg/ml) / 1b): 2 µg/mL (≈ 6.18 µM)
MIC ([17]; read-out: MIC(μg/ml) / 1b): 2 µg/mL (≈ 6.18 µM)
MIC ([18]; read-out: MIC(μg/ml) / 1b): 2 µg/mL (≈ 6.18 µM)
MIC ([19]; read-out: MIC(μg/ml) / 1b): 2 µg/mL (≈ 6.18 µM)
MIC ([20]; read-out: MIC(μg/ml) / 1b): 4 µg/mL (≈ 12.4 µM)
MIC ([21]; read-out: MIC(μg/ml) / 1b): 1 µg/mL (≈ 3.09 µM)
MIC ([22]; read-out: MIC(μg/ml) / 1b): 2 µg/mL (≈ 6.18 µM)
MIC ([23]; EFA1568, read-out: MIC(μg/ml) / 1b): 4 µg/mL (≈ 12.4 µM)
MIC ([24]; read-out: MIC(μg/ml) / 1b): 4 µg/mL (≈ 12.4 µM)
MIC ([25]; read-out: MIC(μg/ml) / 1b): 2 µg/mL (≈ 6.18 µM)
MIC ([26]; EFA151, read-out: MIC(μg/ml) / 1b): 8 µg/mL (≈ 24.7 µM)
MIC ([27]; EFM152, read-out: MIC(μg/ml) / 1b): 4 µg/mL (≈ 12.4 µM)
MIC ([28]; EFM157, read-out: MIC(μg/ml) / 1b): 2 µg/mL (≈ 6.18 µM)
